In US20080255193A1, “Pharmaceutical Composition” (priority 2005, published 2008):
In brackets after ≈: the same amount, converted by molar mass.

Assay: Aqueous solubility of talnetant
Assay type: physicochemical
Conditions: aqueous medium
Description: Talnetant has low aqueous solubility (approximately 0.03 mg/ml at pH 1 and 0.001 mg/ml, at pH 7.0). Typically drugs with low aqueous solubility are absorbed slowly across the walls of the gastrointestinal tract (GIT) due to poor dissolution of the solid in the GIT leading to a small diffusive driving force.

## CC[C@H](NC(=O)c1c(O)c(-c2ccccc2)nc2ccccc12)c1ccccc1 [Talnetant, (S)-(−)-N-(α-ethylbenzyl)-3-hydroxy-2-phenylquinoline-4-carboxamide]
Aqueous buffer, pH 7.0
  solubility: ~1 µg/mL (≈ 2.61 µM)
pH 1, simulated gastric fluid
  solubility: ~30 µg/mL (≈ 78.4 µM)
